Measurements taken from ChEMBL document CHEMBL4507319 (2021).

Columns and labels:
[1] = target: Tyrosine-protein kinase Blk (Homo sapiens) (UniProt P51451); assay: Blk(h) Eurofins kinase panel; conditions: Compound concentration 1.0 uM
[2] = target: Cyclin-dependent kinase 2/cyclin A (Homo sapiens) (UniProt P24941+P20248+P78396); assay: CDK2/cyclinA(h) Eurofins kinase panel; assay type: protein-complex assay; conditions: Compound concentration 1.0 uM
[3] = target: Cyclin-dependent kinase 2/cyclin E (Homo sapiens) (UniProt P24864+P24941+O96020); assay: CDK2/cyclinE(h) Eurofins kinase panel; assay type: protein-complex assay; conditions: Compound concentration 1.0 uM
[4] = target: Casein kinase I isoform gamma-1 (Homo sapiens) (UniProt Q9HCP0); assay: CK1gamma1(h) Eurofins kinase panel; conditions: Compound concentration 1.0 uM
[5] = target: Insulin receptor (Homo sapiens) (UniProt P06213); assay: IR(h) Eurofins kinase panel; conditions: Compound concentration 1.0 uM
[6] = target: Mitogen-activated protein kinase 10 (Homo sapiens) (UniProt P53779); assay: JNK3(h) Eurofins kinase panel; conditions: Compound concentration 1.0 uM
[7] = target: T1, Serine/threonine-protein kinase STK11 (Homo sapiens) (UniProt Q15831); assay: LKB1(h) Eurofins kinase panel; conditions: Compound concentration 1.0 uM
T1 sequence (whole entry): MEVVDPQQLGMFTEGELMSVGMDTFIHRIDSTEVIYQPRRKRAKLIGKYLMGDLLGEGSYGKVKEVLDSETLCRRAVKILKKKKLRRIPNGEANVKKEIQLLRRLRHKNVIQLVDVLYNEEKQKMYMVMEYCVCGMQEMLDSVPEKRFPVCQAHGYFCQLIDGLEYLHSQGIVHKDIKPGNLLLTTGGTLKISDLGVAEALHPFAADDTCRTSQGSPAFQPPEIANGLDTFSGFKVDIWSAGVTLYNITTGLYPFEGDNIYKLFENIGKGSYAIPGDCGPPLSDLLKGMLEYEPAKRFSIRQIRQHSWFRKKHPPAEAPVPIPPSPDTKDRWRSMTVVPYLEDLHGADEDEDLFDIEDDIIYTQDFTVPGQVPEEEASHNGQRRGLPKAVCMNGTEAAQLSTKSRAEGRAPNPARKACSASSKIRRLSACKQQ

[8] = target: Serine/threonine-protein kinase MRCK alpha (Homo sapiens) (UniProt Q5VT25); assay: MRCKalpha(h) Eurofins kinase panel; conditions: Compound concentration 1.0 uM
[9] = target: SRSF protein kinase 3 (Homo sapiens) (UniProt Q9UPE1); assay: MSSK1(h) Eurofins kinase panel; conditions: Compound concentration 1.0 uM
[10] = target: Serine/threonine-protein kinase MARK2 (Homo sapiens) (UniProt Q7KZI7); assay: PAR-1Balpha(h) Eurofins kinase panel; conditions: Compound concentration 1.0 uM
[11] = target: Eukaryotic translation initiation factor 2-alpha kinase 3 (Homo sapiens) (UniProt Q9NZJ5); assay: PEK(h) Eurofins kinase panel; conditions: Compound concentration 1.0 uM
[12] = target: Protein kinase C beta type (Homo sapiens) (UniProt P05771); assay: PKCbetaII (h) Eurofins kinase panel; conditions: Compound concentration 1.0 uM
[13] = target: Interferon-induced, double-stranded RNA-activated protein kinase (Homo sapiens) (UniProt P19525); assay: PKR(h) Eurofins kinase panel; conditions: Compound concentration 1.0 uM
[14] = target: T2, MAP kinase-activated protein kinase 5 (Homo sapiens) (UniProt Q8IW41); assay: PRAK(h) Eurofins kinase panel; conditions: Compound concentration 1.0 uM
T2 sequence (whole entry): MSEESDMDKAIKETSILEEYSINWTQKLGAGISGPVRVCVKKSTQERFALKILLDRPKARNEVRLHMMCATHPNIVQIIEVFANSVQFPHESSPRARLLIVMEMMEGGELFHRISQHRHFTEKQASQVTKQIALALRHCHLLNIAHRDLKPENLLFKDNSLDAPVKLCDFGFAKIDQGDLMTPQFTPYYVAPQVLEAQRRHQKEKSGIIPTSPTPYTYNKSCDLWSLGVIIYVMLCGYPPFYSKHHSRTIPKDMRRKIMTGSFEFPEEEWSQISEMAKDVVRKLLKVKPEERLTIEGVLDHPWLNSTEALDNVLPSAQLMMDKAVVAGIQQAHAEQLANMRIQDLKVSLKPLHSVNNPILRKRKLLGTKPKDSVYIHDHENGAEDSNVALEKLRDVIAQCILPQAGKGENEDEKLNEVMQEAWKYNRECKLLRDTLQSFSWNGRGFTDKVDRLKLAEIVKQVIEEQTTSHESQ

[15] = target: Serine/threonine-protein kinase SIK2 (Homo sapiens) (UniProt Q9H0K1); assay: SIK2(h) Eurofins kinase panel; conditions: Compound concentration 1.0 uM
[16] = target: Serine/threonine-protein kinase 33 (Homo sapiens) (UniProt Q9BYT3); assay: STK33(h) Eurofins kinase panel; conditions: Compound concentration 1.0 uM
[17] = target: T3, Tyrosine-protein kinase TXK (Homo sapiens) (UniProt P42681); assay: Txk(h) Eurofins kinase panel; conditions: Compound concentration 1.0 uM
T3 sequence (whole entry): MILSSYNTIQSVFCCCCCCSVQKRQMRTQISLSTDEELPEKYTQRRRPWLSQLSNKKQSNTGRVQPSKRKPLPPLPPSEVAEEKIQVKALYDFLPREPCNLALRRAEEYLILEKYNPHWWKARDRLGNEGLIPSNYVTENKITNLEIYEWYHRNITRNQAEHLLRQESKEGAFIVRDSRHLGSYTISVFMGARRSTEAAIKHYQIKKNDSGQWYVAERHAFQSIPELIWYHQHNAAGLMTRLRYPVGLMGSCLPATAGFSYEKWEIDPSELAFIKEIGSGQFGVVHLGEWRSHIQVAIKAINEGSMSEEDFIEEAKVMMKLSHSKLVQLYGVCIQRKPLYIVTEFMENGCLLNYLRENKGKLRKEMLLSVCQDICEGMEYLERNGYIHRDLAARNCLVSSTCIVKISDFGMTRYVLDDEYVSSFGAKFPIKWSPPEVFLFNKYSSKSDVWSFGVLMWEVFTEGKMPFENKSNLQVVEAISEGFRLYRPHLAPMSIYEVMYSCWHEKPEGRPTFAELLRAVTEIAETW

[18] = target: Phosphatidylinositol 4-phosphate 5-kinase type-1 alpha (Homo sapiens) (UniProt Q99755); assay: PIP5K1a(h) Eurofins kinase panel; conditions: Compound concentration 1.0 uM
[19] = system: LS174T; assay: LS-174T cell line Proliferation assay; assay type: functional, Homo sapiens; conditions: time 3 day
[20] = system: SNU-16; assay: Snu16 cell line Proliferation assay; assay type: functional, Homo sapiens; conditions: time 3 day
[21] = target: Receptor-type tyrosine-protein kinase FLT3 (Homo sapiens) (UniProt P36888); conditions: Compound concentration 1.0 uM
[22] = target: Hepatocyte growth factor receptor (Homo sapiens) (UniProt P08581); conditions: Compound concentration 1.0 uM

Sequence of Protein kinase C beta type (Homo sapiens) (P05771 2-671 limits assumed): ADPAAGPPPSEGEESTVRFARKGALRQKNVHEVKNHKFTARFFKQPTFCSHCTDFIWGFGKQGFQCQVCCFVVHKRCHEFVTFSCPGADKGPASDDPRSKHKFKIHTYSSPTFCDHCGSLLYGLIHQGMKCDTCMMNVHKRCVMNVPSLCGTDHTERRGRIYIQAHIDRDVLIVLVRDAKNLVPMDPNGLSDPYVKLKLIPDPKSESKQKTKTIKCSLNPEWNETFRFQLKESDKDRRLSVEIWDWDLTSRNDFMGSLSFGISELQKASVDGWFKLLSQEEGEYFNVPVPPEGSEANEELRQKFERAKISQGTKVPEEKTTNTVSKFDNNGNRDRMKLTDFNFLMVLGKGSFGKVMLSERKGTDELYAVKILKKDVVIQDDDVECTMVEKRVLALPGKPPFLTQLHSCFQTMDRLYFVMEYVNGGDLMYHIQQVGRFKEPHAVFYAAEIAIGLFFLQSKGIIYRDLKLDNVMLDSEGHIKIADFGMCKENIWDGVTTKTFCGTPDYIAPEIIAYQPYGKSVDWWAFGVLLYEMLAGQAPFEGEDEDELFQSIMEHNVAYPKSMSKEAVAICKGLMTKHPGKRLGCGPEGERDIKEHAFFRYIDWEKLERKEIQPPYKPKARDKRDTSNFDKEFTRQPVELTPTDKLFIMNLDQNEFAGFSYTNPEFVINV
Sequence of Insulin receptor (Homo sapiens) (P06213 28-758 limits assumed): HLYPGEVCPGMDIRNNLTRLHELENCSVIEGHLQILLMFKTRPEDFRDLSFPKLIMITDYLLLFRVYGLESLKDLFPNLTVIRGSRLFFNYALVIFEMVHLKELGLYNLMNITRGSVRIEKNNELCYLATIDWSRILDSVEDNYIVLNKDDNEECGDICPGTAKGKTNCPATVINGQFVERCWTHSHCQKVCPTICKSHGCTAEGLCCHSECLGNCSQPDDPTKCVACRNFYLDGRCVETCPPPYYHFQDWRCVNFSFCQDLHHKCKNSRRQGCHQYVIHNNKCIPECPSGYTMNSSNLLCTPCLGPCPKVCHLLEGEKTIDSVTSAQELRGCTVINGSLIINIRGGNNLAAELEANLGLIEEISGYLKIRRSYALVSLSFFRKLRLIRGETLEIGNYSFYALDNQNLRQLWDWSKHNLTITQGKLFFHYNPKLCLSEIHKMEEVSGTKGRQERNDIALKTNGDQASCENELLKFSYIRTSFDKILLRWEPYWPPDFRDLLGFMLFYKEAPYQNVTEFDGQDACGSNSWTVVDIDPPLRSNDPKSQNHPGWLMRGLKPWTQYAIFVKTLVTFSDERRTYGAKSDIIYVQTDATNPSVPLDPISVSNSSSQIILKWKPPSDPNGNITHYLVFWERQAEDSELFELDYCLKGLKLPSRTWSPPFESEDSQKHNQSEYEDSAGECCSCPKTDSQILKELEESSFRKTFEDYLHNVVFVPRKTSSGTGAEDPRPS
Sequence of Insulin receptor (Homo sapiens) (P06213 763-1382 limits assumed): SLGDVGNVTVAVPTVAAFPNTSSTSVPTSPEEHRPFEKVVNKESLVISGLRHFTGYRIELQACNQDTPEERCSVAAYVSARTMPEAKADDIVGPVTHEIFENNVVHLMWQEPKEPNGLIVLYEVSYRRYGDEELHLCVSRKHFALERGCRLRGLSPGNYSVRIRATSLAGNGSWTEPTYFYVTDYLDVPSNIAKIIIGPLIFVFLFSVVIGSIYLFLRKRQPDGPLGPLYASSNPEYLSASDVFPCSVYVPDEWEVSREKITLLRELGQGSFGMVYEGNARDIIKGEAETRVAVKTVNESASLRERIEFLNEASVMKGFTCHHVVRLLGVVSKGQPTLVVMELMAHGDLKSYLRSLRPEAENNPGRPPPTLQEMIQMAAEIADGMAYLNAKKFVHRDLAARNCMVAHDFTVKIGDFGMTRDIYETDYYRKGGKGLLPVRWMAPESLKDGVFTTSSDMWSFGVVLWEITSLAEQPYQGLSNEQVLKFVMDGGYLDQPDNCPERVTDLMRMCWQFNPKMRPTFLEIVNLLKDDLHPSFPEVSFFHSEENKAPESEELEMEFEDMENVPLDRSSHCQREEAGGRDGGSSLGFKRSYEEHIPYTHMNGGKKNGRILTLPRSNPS
Sequence of Serine/threonine-protein kinase MRCK alpha (Homo sapiens) (Q5VT25 whole entry): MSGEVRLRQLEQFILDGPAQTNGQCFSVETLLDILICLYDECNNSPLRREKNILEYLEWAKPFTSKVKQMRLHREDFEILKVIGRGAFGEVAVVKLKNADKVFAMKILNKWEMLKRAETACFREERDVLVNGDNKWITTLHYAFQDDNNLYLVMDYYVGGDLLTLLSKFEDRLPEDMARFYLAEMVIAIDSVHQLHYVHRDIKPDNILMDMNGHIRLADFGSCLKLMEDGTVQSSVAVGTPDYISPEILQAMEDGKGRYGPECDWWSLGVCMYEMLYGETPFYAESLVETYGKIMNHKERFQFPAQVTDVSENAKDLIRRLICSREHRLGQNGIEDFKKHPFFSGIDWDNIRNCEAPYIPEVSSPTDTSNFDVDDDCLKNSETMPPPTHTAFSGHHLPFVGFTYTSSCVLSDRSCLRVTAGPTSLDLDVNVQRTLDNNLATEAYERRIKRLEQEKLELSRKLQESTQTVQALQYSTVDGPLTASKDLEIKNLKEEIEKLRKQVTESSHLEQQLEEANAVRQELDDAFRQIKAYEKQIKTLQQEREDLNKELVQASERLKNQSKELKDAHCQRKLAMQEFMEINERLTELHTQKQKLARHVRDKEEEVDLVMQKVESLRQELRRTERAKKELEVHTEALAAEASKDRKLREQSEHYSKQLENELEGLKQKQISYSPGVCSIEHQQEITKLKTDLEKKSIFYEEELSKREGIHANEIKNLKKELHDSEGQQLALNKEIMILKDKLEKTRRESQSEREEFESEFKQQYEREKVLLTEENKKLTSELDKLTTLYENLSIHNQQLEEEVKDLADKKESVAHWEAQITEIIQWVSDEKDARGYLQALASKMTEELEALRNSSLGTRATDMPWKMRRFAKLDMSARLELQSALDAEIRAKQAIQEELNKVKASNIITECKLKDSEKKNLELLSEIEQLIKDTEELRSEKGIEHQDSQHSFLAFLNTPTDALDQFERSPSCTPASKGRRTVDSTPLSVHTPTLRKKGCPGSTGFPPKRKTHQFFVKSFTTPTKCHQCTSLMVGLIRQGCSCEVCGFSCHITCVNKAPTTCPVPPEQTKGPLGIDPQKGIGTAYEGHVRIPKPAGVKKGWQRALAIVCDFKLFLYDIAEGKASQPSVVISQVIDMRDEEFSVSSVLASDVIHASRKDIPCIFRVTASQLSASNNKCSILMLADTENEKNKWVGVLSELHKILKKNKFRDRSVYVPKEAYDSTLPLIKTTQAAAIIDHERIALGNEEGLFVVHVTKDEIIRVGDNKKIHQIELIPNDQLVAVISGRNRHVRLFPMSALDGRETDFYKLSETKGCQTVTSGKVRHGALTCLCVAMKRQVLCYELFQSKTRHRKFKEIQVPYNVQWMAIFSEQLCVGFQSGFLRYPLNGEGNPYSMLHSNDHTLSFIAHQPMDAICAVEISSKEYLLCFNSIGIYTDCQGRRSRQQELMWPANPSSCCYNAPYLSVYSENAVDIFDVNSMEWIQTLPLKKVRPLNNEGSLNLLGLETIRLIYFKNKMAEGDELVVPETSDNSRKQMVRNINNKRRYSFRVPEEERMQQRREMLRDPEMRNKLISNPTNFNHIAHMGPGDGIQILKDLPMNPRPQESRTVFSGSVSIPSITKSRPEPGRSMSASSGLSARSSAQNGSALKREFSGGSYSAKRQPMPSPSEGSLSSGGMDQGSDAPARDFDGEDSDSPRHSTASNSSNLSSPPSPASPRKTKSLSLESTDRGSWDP
Sequence of Serine/threonine-protein kinase 33 (Homo sapiens) (Q9BYT3 whole entry, looked up): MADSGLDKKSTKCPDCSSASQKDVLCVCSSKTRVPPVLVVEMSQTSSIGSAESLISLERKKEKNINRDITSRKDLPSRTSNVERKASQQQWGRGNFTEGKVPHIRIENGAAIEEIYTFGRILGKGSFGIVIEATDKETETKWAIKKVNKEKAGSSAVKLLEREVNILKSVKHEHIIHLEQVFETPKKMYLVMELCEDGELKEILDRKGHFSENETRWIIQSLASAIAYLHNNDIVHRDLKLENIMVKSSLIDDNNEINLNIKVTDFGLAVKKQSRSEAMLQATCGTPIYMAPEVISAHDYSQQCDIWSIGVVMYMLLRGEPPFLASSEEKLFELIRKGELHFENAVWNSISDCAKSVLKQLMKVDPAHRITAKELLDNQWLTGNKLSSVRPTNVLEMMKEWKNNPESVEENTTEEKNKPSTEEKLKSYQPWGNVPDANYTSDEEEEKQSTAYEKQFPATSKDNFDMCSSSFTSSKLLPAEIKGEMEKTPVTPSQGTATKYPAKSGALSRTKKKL
Sequence of SRSF protein kinase 3 (Homo sapiens) (Q9UPE1 whole entry): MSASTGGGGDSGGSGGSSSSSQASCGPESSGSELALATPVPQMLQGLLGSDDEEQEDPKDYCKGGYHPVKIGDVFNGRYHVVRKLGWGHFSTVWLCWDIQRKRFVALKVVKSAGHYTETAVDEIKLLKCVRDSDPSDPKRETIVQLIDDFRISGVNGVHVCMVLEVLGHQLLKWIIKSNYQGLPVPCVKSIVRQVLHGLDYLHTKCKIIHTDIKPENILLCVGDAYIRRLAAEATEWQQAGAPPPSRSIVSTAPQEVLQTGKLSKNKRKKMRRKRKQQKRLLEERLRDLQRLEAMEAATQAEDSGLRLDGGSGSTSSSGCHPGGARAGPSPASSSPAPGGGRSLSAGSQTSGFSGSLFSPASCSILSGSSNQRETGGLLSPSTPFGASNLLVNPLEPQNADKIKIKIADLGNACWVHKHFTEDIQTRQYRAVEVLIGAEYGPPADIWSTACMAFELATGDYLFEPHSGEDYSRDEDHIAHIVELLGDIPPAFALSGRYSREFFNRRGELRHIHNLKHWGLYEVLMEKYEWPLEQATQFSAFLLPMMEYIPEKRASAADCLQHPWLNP

CCc1ccccc1C(=O)Nc1n[nH]c2c(C)c(F)c(C3C(C#N)=C(C)N(C)C(C)=C3C#N)cc12 [BAY-3827]
inactive: % residual kinase activity [1] 111% | % residual kinase activity [2] 100% | % residual kinase activity [3] 92% | % residual kinase activity [4] 101% | % residual kinase activity [5] 115% | % residual kinase activity [6] 72% | % residual kinase activity [7] 90% | % residual kinase activity [8] 98% | % residual kinase activity [9] 39% | % residual kinase activity [10] 32% | % residual kinase activity [11] 101% | % residual kinase activity [12] 42% | % residual kinase activity [13] 96% | % residual kinase activity [14] 87% | % residual kinase activity [15] 68% | % residual kinase activity [16] 55% | % residual kinase activity [17] 111% | % residual kinase activity [18] 100% | % residual kinase activity [21] 7% | % residual kinase activity [22] 1%
>30 µM: Cell Proliferation IC50 [19]
11.6 µM: Cell Proliferation IC50 [20]
